Numbered stars: 1 amine (or outer) side, 2 acyl side, 3 side chain; on linkers, the order of the positions; unused ones are H or OH. Bridge positions count the residues as written; N and C are the ends. Square brackets hold non-standard residues; d marks the D form. Peptide text beside a SMILES is read from it. * marks the point of attachment. Acetyl(1-DOTA-4-piperidyl) = O=C(O)CN1CCN(CC(=O)O)CCN(CC(=O)N2CCC(CC(=O)*)CC2)CCN(CC(=O)O)CC1; DOTA = O=C(O)CN1CCN(CC(=O)O)CCN(CC(=O)*)CCN(CC(=O)O)CC1; Phe(4-Cl) = N[C@@H](Cc1ccc(Cl)cc1)C(=O)O; Phe(4-NH2) = Nc1ccc(C[C@H](N)C(=O)O)cc1; X1 = O=C(CC1CCN([*:1])CC1)[*:2]; Cit = NC(=O)NCCC[C@H](N)C(=O)O; NMeK = CN[C@@H](CCCCN)C(=O)O; Tle = CC(C)(C)[C@H](N)C(=O)O; 4Amb = NCc1ccc(C(=O)O)cc1; Isovaleryl = CC(C)CC(=O)*; 4Abz = Nc1ccc(C(=O)O)cc1; Aib = CC(C)(N)C(=O)O; CO = O=C([*:1])[*:2]; Bn = c1ccc(C*)cc1; βAla = NCCC(=O)O; NHBu = CCCCN*
Key:
[1] = molecular target: T1, Fc-fusion protein of human PSMA (hPSMA-Fc) (Homo sapiens, UniProt Q04609); test: Surface plasmon resonance assay (Biacore T200, single cycle kinetic); type: binding; details: pKD category for PSMA SPR activity assay, hPSMA-Fc, 25° C.; read-out: pKD CAT (converted)
T1 construct: purchased Acro Biosystems PSA-H5264
T1 sequence (Q04609 44-750 limits assumed): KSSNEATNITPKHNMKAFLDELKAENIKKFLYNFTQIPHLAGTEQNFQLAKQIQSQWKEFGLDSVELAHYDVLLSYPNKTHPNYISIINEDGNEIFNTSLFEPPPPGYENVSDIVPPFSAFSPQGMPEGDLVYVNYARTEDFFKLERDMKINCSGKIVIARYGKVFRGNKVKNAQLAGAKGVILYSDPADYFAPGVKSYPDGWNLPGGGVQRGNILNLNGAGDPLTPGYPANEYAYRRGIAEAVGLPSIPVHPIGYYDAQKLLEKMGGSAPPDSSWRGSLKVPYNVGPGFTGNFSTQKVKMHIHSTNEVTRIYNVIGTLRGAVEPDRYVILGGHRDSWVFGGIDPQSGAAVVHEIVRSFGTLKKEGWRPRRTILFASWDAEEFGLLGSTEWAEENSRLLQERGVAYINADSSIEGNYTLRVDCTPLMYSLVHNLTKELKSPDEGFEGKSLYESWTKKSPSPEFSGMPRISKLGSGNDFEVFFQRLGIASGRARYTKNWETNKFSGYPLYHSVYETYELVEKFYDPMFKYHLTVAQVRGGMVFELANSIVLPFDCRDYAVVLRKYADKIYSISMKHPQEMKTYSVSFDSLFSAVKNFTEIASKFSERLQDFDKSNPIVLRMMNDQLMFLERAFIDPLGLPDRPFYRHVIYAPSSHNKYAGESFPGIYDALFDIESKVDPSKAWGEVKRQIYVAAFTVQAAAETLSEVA
How it was run: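 KD, expressed as pKD, came from 1:1 Langmuir fits of reference- and buffer-blank-subtracted SPR data. The runs were single-cycle kinetics at 25° C in HBST/0.1% DMSO over human PSMA-Fc, captured to ~1000 RU on a peptide-coated CM5 surface and regenerated with 10 mM glycine pH 1.5.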

[2] = molecular target: T2, PSMA-expressing C4-2 cells (Homo sapiens, UniProt Q04609); test: FACS binding assay (competition with 50 nM PSM-0183); details: pIC50 category of FACS binding, C4-2 cells; read-out: pIC50 [C4-2] CAT (converted)
T2 construct: PSMA-expressing C4-2 cells (ATCC, Cat. No. CRL-3314) were cultured in RPMI-1640; host or cells: C4-2 cells
T2 sequence (Q04609 whole entry): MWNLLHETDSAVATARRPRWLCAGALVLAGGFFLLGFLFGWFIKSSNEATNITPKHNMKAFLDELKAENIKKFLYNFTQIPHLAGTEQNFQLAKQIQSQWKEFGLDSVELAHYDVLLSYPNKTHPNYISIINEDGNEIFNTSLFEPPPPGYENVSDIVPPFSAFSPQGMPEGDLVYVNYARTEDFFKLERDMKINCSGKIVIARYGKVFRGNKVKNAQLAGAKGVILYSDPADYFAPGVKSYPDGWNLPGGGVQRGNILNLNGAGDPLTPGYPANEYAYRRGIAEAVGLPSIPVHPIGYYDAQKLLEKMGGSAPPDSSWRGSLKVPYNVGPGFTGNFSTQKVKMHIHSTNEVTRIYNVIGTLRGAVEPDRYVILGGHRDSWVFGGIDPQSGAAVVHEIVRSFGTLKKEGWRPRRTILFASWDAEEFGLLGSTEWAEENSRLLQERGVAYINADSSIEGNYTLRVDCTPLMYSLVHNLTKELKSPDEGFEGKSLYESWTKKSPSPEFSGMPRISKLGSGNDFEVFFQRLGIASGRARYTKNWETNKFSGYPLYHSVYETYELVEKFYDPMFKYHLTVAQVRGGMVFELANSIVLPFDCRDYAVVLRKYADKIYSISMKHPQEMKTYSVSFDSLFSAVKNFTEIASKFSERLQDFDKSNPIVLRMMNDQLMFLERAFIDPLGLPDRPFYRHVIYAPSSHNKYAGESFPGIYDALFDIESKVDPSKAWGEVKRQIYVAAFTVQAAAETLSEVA
How it was run: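 Competition format: fluorescent tracer PSM-0183 (50 nM) displaced from PSMA on C4-2 cells by a test compound titration over 1 h at 4 °C. Bound tracer was quantified as flow-cytometric AF488 median fluorescence after washing. Four-parameter logistic fits of MFI data gave IC50 and pIC50.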

Structure (SMILES) | Kd [1] [µM] | IC50 [2] [µM]
CC(=O)N[C@H](C(=O)NC(C)(C)C(=O)N[C@@H](Cc1ccccc1)C(=O)N[C@H]1CSSC[C@@H](C(=O)N[C@H](C(=O)N[C@H](C(=O)N[C@@H](CC(=O)O)C(N)=O)[C@@H](C)O)C(C)(C)C)NC(=O)[C@H](CC(N)=O)NC(=O)[C@H](C)NC(=O)[C@H](CCCNC(=N)N)NC(=O)[C@H](CCC(N)=O)NC1=O)[C@@H](C)O [PSM-0435, Ac-Thr-Aib-Phe-[Cys-Gln-Arg-Ala-Asn-Cys]-Tle-Thr-Asp-NH2] (Ac-T[Aib]FCQRANC[Tle]TD-NH2; disulfide 4-9) | 0.0126 to 0.126 | < 0.2
CC(=O)N[C@H](C(=O)NC(C)(C)C(=O)N[C@@H](Cc1ccccc1)C(=O)N[C@H]1CSSC[C@@H](C(=O)N[C@H](C(=O)N[C@H](C(=O)N[C@@H](CC(=O)O)C(N)=O)[C@@H](C)O)C(C)(C)C)NC(=O)[C@H](CC(N)=O)NC(=O)[C@H](C)NC(=O)[C@H](CCCNC(=N)N)NC(=O)[C@H](Cc2ccc(N)cc2)NC1=O)[C@@H](C)O [PSM-0439, Ac-Thr-Aib-Phe-[Cys-Aph-Arg-Ala-Asn-Cys]-Tle-Thr-Asp-NH2] (Ac-T[Aib]FC[Phe(4-NH2)]RANC[Tle]TD-NH2; disulfide 4-9) | 0.126 to 0.501 | < 0.2
CC(=O)N[C@H](C(=O)NC(C)(C)C(=O)N[C@@H](CSCc1ccccc1)C(=O)N[C@H]1CSSC[C@@H](C(=O)N[C@H](C(=O)N[C@H](C(N)=O)[C@@H](C)O)C(C)(C)C)NC(=O)[C@H](CC(N)=O)NC(=O)C(C)(C)NC(=O)[C@H](CCCNC(=N)N)NC(=O)[C@H](CCCCN)NC1=O)[C@@H](C)O [PSM-0441, Ac-Thr-Aib-Cys(Bzl)-[Cys-Lys-Arg-Aib-Asn-Cys]-Tle-Thr-NH2] (Ac-T[Aib]C(Bn)CKR[Aib]NC[Tle]T-NH2; disulfide 4-9) | 0.0126 to 0.126 | < 0.2
CC(=O)NC(C)(C)C(=O)N[C@@H](Cc1ccc(Cl)cc1)C(=O)N[C@H]1CSSC[C@@H](C(N)=O)NC(=O)[C@H](CC(N)=O)NC(=O)C(C)(C)NC(=O)[C@H](CCCNC(=N)N)NC(=O)[C@H](CCCCN)NC1=O [PSM-0443, Ac-Aib-Pcf-[Cys-Lys-Arg-Aib-Asn-Cys]-NH2] (Ac-[Aib][Phe(4-Cl)]CKR[Aib]NC-NH2; disulfide 3-8) | > 0.501 | 0.2 to 1.26
C[C@@H](O)[C@H](NC(=O)[C@@H](NC(=O)[C@@H]1CSSC[C@H](NC(=O)[C@H](Cc2ccccc2)NC(=O)C(C)(C)NC(=O)[C@@H](NC(=O)c2ccc(NC(=O)CN3CCN(CC(=O)O)CCN(CC(=O)O)CCN(CC(=O)O)CC3)cc2)[C@@H](C)O)C(=O)N[C@@H](CCCCN)C(=O)N[C@@H](CCCNC(=N)N)C(=O)NC(C)(C)C(=O)N[C@@H](CC(N)=O)C(=O)N1)C(C)(C)C)C(N)=O [PSM-0448, DOTA-Pab-Thr-Aib-Phe-[Cys-Lys-Arg-Aib-Asn-Cys]-Tle-Thr-NH2] ({DOTA-4Abz}-T[Aib]FCKR[Aib]NC[Tle]T-NH2; disulfide 4-9) | < 0.0126 | < 0.2
CC(C)CC(=O)NC(C)(C)C(=O)N[C@@H](Cc1ccccc1)C(=O)N[C@H]1CSSC[C@@H](C(=O)N[C@H](C(=O)N[C@H](C(N)=O)[C@@H](C)O)C(C)(C)C)NC(=O)[C@H](CC(N)=O)NC(=O)C(C)(C)NC(=O)[C@H](CCCNC(=N)N)NC(=O)[C@H](CCCCN)NC1=O [PSM-0450, Iva-Aib-Phe-[Cys-Lys-Arg-Aib-Asn-Cys]-Tle-Thr-NH2] (Isovaleryl-[Aib]FCKR[Aib]NC[Tle]T-NH2; disulfide 3-8) | < 0.0126 | < 0.2
CC(=O)N[C@H](C(=O)NC(C)(C)C(=O)N[C@@H](Cc1ccccc1)C(=O)N[C@H]1CSSC[C@@H](C(=O)N[C@H](C(=O)N[C@H](C(N)=O)[C@@H](C)O)C(C)(C)C)NC(=O)[C@H](CC(N)=O)NC(=O)C(C)(C)NC(=O)[C@H](CCCNC(=N)N)NC(=O)[C@H](CCCCN)N(C)C1=O)[C@@H](C)O [PSM-0451, Ac-Thr-Aib-Phe-[Cys-Nmk-Arg-Aib-Asn-Cys]-Tle-Thr-NH2] (Ac-T[Aib]FC[NMeK]R[Aib]NC[Tle]T-NH2; disulfide 4-9) | 0.0126 to 0.126 | 0.2 to 1.26

Other lines, results leading:

Kd [1] [µM] | IC50 [2] [µM] | Structure (SMILES)
< 0.0126 | < 0.2 | CC(C)(NC(=O)c1ccc(CNC(=O)CN2CCN(CC(=O)O)CCN(CC(=O)O)CCN(CC(=O)O)CC2)cc1)C(=O)N[C@@H](Cc1ccc(Cl)cc1)C(=O)N[C@H]1CSSC[C@@H](C(=O)N[C@H](C(=O)NCCC(N)=O)C(C)(C)C)NC(=O)[C@H](CC(N)=O)NC(=O)C(C)(C)NC(=O)[C@H](CCCNC(=N)N)NC(=O)[C@H](CCCCN)NC1=O [PSM-0432, DOTA-Pamb-Aib-Pcf-[Cys-Lys-Arg-Aib-Asn-Cys]-Tle-Bal-NH2] ({DOTA-4Amb}-[Aib][Phe(4-Cl)]CKR[Aib]NC[Tle][βAla]-NH2; disulfide 3-8)
0.0126 to 0.126 | 0.2 to 1.26 | CCCCNC(=O)N[C@H](C(=O)NC(C)(C)C(=O)N[C@@H](Cc1ccccc1)C(=O)N[C@H]1CSSC[C@@H](C(=O)N[C@H](C(=O)N[C@H](C(=O)N2CCC(CC(=O)N[C@H](CCCCNC(=O)CN3CCN(CC(=O)O)CCN(CC(=O)O)CCN(CC(=O)O)CC3)C(N)=O)CC2)[C@@H](C)O)C(C)(C)C)NC(=O)[C@H](CC(N)=O)NC(=O)C(C)(C)NC(=O)[C@H](CCCNC(N)=O)NC(=O)[C@H](CCCCN)NC1=O)[C@@H](C)O [PSM-0434, nBuCAyl-Thr-Aib-Phe-[Cys-Lys-Cit-Aib-Asn-Cys]-Tle-Thr-Cmp-lys(DOTA)-NH2] ({NHBu-CO}-T[Aib]FCK[Cit][Aib]NC[Tle]T[X1][dK](DOTA)-NH2; disulfide 4-9)
0.0126 to 0.126 | < 0.2 | C[C@@H](O)[C@H](NC(=O)[C@@H](NC(=O)[C@@H]1CSSC[C@H](NC(=O)[C@H](Cc2ccccc2)NC(=O)C(C)(C)NC(=O)CCNC(=O)CN2CCN(CC(=O)O)CCN(CC(=O)O)CCN(CC(=O)O)CC2)C(=O)N[C@@H](CCCCN)C(=O)N[C@@H](CCCNC(=N)N)C(=O)NC(C)(C)C(=O)N[C@@H](CC(N)=O)C(=O)N1)C(C)(C)C)C(N)=O [PSM-0437, DOTA-Bal-Aib-Phe-[Cys-Lys-Arg-Aib-Asn-Cys]-Tle-Thr-NH2] ({DOTA-βAla}-[Aib]FCKR[Aib]NC[Tle]T-NH2; disulfide 3-8)
< 0.0126 | < 0.2 | CC(=O)NC(C)(C)C(=O)N[C@@H](Cc1ccccc1)C(=O)N[C@H]1CSSC[C@@H](C(=O)N[C@H](C(=O)N[C@H](C(=O)N[C@@H](CC(=O)O)C(N)=O)[C@@H](C)O)C(C)(C)C)NC(=O)[C@H](CC(N)=O)NC(=O)C(C)(C)NC(=O)[C@H](CCCNC(=N)N)NC(=O)[C@H](CCCCN)NC1=O [PSM-0442, Ac-Aib-Phe-[Cys-Lys-Arg-Aib-Asn-Cys]-Tle-Thr-Asp-NH2] (Ac-[Aib]FCKR[Aib]NC[Tle]TD-NH2; disulfide 3-8)
< 0.0126 | < 0.2 | CC(C)CC(=O)NC(C)(C)C(=O)N[C@@H](Cc1ccc(Cl)cc1)C(=O)N[C@H]1CSSC[C@@H](C(=O)N[C@H](C(=O)N[C@H](C(=O)N[C@H](CCCCNC(=O)CN2CCN(CC(=O)O)CCN(CC(=O)O)CCN(CC(=O)O)CC2)C(N)=O)[C@@H](C)O)C(C)(C)C)NC(=O)[C@H](CC(N)=O)NC(=O)C(C)(C)NC(=O)[C@H](CCCNC(=N)N)NC(=O)[C@H](CCCCN)NC1=O [PSM-0444, Iva-Aib-Pcf-[Cys-Lys-Arg-Aib-Asn-Cys]-Tle-Thr-lys(DOTA)-NH2] (Isovaleryl-[Aib][Phe(4-Cl)]CKR[Aib]NC[Tle]T[dK](DOTA)-NH2; disulfide 3-8)
< 0.0126 | < 0.2 | C[C@@H](O)[C@H](NC(=O)[C@@H](NC(=O)[C@@H]1CSSC[C@H](NC(=O)[C@H](Cc2ccc(Cl)cc2)NC(=O)C(C)(C)NC(=O)[C@@H](NC(=O)CC2CCN(C(=O)CN3CCN(CC(=O)O)CCN(CC(=O)O)CCN(CC(=O)O)CC3)CC2)[C@@H](C)O)C(=O)N[C@@H](CCCCN)C(=O)N[C@@H](CCCNC(=N)N)C(=O)NC(C)(C)C(=O)N[C@@H](CC(N)=O)C(=O)N1)C(C)(C)C)C(N)=O [PSM-0445, DOTA-Cmp-Thr-Aib-Pcf-[Cys-Lys-Arg-Aib-Asn-Cys]-Tle-Thr-NH2] ({DOTA}-[X1]T[Aib][Phe(4-Cl)]CKR[Aib]NC[Tle]T-NH2; disulfide 5-10)
> 0.501 | > 3.16 | C[C@@H](O)[C@H](NC(=O)[C@@H](NC(=O)[C@@H]1CSSC[C@H](NC(=O)[C@H](Cc2ccccc2)NC(=O)C(C)(C)NC(=O)CN2CCN(CC(=O)O)CCN(CC(=O)O)CCN(CC(=O)O)CC2)C(=O)N[C@@H](CCCCN)C(=O)N[C@@H](CCCNC(=N)N)C(=O)NC(C)(C)C(=O)N[C@@H](CC(N)=O)C(=O)N1)C(C)(C)C)C(N)=O [PSM-0447, DOTA-Aib-Phe-[Cys-Lys-Arg-Aib-Asn-Cys]-Tle-Thr-NH2] ({DOTA}-[Aib]FCKR[Aib]NC[Tle]T-NH2; disulfide 3-8)
< 0.0126 | < 0.2 | CCCCNC(=O)N[C@H](C(=O)NC(C)(C)C(=O)N[C@@H](Cc1ccc(Cl)cc1)C(=O)N[C@H]1CSSC[C@@H](C(=O)N[C@H](C(=O)N[C@H](C(=O)N[C@H](CCCCNC(=O)CC2CCN(C(=O)CN3CCN(CC(=O)O)CCN(CC(=O)O)CCN(CC(=O)O)CC3)CC2)C(N)=O)[C@@H](C)O)C(C)(C)C)NC(=O)[C@H](CC(N)=O)NC(=O)C(C)(C)NC(=O)[C@H](CCCNC(=N)N)NC(=O)[C@H](CCCCN)NC1=O)[C@@H](C)O [PSM-0452, nBuCAyl-Thr-Aib-Pcf-[Cys-Lys-Arg-Aib-Asn-Cys]-Tle-Thr-lys (DOTA-Cmp)-NH2] ({NHBu-CO}-T[Aib][Phe(4-Cl)]CKR[Aib]NC[Tle]T[dK](Acetyl(1-DOTA-4-piperidyl))-NH2; disulfide 4-9)

Reference: patent US20260083865A1, “PROSTATE SPECIFIC MEMBRANE ANTIGEN (PSMA) LIGANDS AND USE THEREOF” (priority 2022, published 2026)
